# According to patent US9993536B2, “Peptides and combination of peptides and scaffolds for use in immunotherapy against renal cell carcinoma (RCC) and other cancers” (immatics biotechnologies GmbH, priority 2015, dated 2018):
# How the values were obtained:
# HLA-A*02:01 = HLA-A*02:01 (Homo sapiens, UniProt P04439, D140Y/D185E/D98H/E176V/E277Q/G131W/G231S/I119V/I121R/I166T/I218V/L300P/L318F/N151K/N90K/P208A/P217A/Q86G/Q94H/R138H/R169H/T345S); assay: MHC binding assay (UV-ligand exchange, beta2m ELISA); conditions: peptide exchange yield, HLA-A*02:01, UV-ligand exchange
# Source text: Candidate peptides for T cell based therapies according to the present invention were further tested for their MHC binding capacity (affinity). The individual peptide-MHC complexes were produced by UV-ligand exchange, where a UV-sensitive peptide is cleaved upon UV-irradiation, and exchanged with the peptide of interest as analyzed. Only peptide candidates that can effectively bind and stabilize the peptide-receptive MHC molecules prevent dissociation of the MHC complexes. To determine the yield of the exchange reaction, an ELISA was performed based on the detection of the light chain (β2m) of stabilized MHC complexes. The assay was performed as generally described in Rodenko et al. (Rodenko et al., 2006).
# 96 well MAXISorp plates (NUNC) were coated over night with 2 ug/ml streptavidin in PBS at room temperature, washed 4× and blocked for 1 h at 37° C. in 2% BSA containing blocking buffer. Refolded HLA-A*02:01/MLA-001 monomers served as standards, covering the range of 15-500 ng/ml. Peptide-MHC monomers of the UV-exchange reaction were diluted 100 fold in blocking buffer. Samples were incubated for 1 h at 37° C., washed four times, incubated with 2 ug/ml HRP conjugated anti-β2m for 1 h at 37° C., washed again and detected with TMB solution that is stopped with […]. Absorption was measured at 450 nm. Candidate peptides that show a high exchange yield (preferably higher than 50%, most preferred higher than 75%) are generally preferred for a generation and production of antibodies or fragments thereof, and/or T cell receptors or fragments thereof, as they show sufficient avidity to the MHC molecules and prevent dissociation of the MHC complexes.
# CD8+ T cells = assay: In vitro T-cell priming assay with aAPCs loaded with peptide/MHC complexes and anti-CD28 (immunogenicity, multimer staining); type: cell-based, human; conditions: for Wells positive [%]: in vitro immunogenicity, HLA class I peptides, percentage of positive wells; for in vitro immunogenicity: donors / in vitro immunogenicity: wells: healthy HLA-A*02+ donors; for in vitro immunogenicity: donors: share of positive donors; for in vitro immunogenicity: wells: share of positive wells
# Source text: In order to obtain information regarding the immunogenicity of the TUMAPs of the present invention, the inventors performed investigations using an in vitro T-cell priming assay based on repeated stimulations of CD8+ T cells with artificial antigen presenting cells (aAPCs) loaded with peptide/MHC complexes and anti-CD28 antibody.
# In order to perform in vitro stimulations by artificial antigen presenting cells loaded with peptide-MHC complex (pMHC) and anti-CD28 antibody, the inventors first isolated CD8+ T cells from fresh HLA-A*02 leukapheresis products via positive selection using CD8 microbeads (Miltenyi Biotec, Bergisch-Gladbach, Germany) of healthy donors obtained from the University clinics Mannheim, Germany, after informed consent.
# PBMCs and isolated CD8+ lymphocytes were incubated in T-cell medium (TCM) until use consisting of RPMI-Glutamax (Invitrogen, Karlsruhe, Germany) supplemented with 10% heat inactivated human AB serum (PAN-Biotech, Aidenbach, Germany), 100 U/ml Penicillin/100 μg/ml Streptomycin (Cambrex, Cologne, Germany), 1 mM sodium pyruvate (CC Pro, Oberdorla, Germany), 20 μg/ml Gentamycin (Cambrex). 2.5 ng/ml IL-7 (PromoCell, Heidelberg, Germany) and 10 U/ml IL-2 (Novartis Pharma, Nürnberg, Germany) were also added to the TCM at this step.
# Generation of pMHC/anti-CD28 coated beads, T-cell stimulations and readout was performed in a highly defined in vitro system using four different pMHC molecules per stimulation condition and 8 different pMHC molecules per readout condition.
# The purified co-stimulatory mouse IgG2a anti human CD28 Ab 9.3 (Jung et al., 1987) was chemically biotinylated using Sulfo-N-hydroxysuccinimidobiotin as recommended by the manufacturer (Perbio, Bonn, Germany). Beads used were 5.6 μm diameter streptavidin coated polystyrene particles (Bangs Laboratories, Illinois, USA).
# pMHC used for positive and negative control stimulations were A*0201/MLA-001 (peptide […] (SEQ ID NO. 152) from modified Melan-A/MART-1) and A*0201/DDX5-001 ([…] from DDX5 (SEQ ID NO. 153)), respectively.
# 800.000 beads/200 μl were coated in 96-well plates in the presence of 4×12.5 ng different biotin-pMHC, washed and 600 ng biotin anti-CD28 were added subsequently in a volume of 200 μl. Stimulations were initiated in 96-well plates by co-incubating […] CD8+ T cells with 2×10^5 washed coated beads in 200 μl TCM supplemented with 5 ng/ml IL-12 (PromoCell) for 3 days at 37° C. Half of the medium was then exchanged by fresh TCM supplemented with 80 U/ml IL-2 and incubating was continued for 4 days at 37° C. This stimulation cycle was performed for a total of three times. For the pMHC multimer readout using 8 different pMHC molecules per condition, a two-dimensional combinatorial coding approach was used as previously described (Andersen et al., 2012) with minor modifications encompassing coupling to 5 different fluorochromes. Finally, multimeric analyses were performed by staining the cells with Live/dead near IR dye (Invitrogen, Karlsruhe, Germany), CD8-FITC antibody clone SK1 (BD, Heidelberg, Germany) and fluorescent pMHC multimers. For analysis, a BD LSRII SORP cytometer equipped with appropriate lasers and filters was used. Peptide specific cells were calculated as percentage of total CD8+ cells. Evaluation of multimeric analysis was done using the FlowJo software (Tree Star, Oregon, USA). In vitro priming of specific multimer+ CD8+ lymphocytes was detected by comparing to negative control stimulations.
Peptide exchange (MHC class I binding score) (HLA-A*02:01),Substance,Wells positive [%] (CD8+ T cells),in vitro immunogenicity: donors (CD8+ T cells),in vitro immunogenicity: wells (CD8+ T cells)
++ (≥20% = ++),15 (ILIKHLVKV; listed as Homo sapiens) [compound 15],+ (<20% = +),,
+++ (≥50 = +++),6 (VLFELSKTV; listed as Homo sapiens) [compound 6],+ (<20% = +),,
,123 (YVDPVITSI; listed as Homo sapiens) [compound 123],,++++ (>=70% = ++++),+ (<20% = +)
,127 (VLAPLFVYL; listed as Homo sapiens) [compound 127],,++++ (>=70% = ++++),++ (20%-49% = ++)
+++ (≥50 = +++),29 (ILLDLEQAL; listed as Homo sapiens) [compound 29],+ (<20% = +),,
,143 (ALFVRLLALA; listed as Homo sapiens) [compound 143],,+++ (50%-69% = +++),+ (<20% = +)
++ (≥20% = ++),9 (ILLQKPDSV; listed as Homo sapiens) [compound 9],+ (<20% = +),,
++ (≥20% = ++),16 (FMPEELPQL; listed as Homo sapiens) [compound 16],+ (<20% = +),,
+++ (≥50 = +++),2 (ILWREVVTL; listed as Homo sapiens) [compound 2],+ (<20% = +),,
+++ (≥50 = +++),1 (ALIVSLPYL; listed as Homo sapiens) [compound 1],+ (<20% = +),,
++ (≥20% = ++),20 (AVANTTFTV; listed as Homo sapiens) [compound 20],+ (<20% = +),,
+++ (≥50 = +++),7 (FLLSLIDRL; listed as Homo sapiens) [compound 7],+ (<20% = +),,
++ (≥20% = ++),3 (RLLGEVQAL; listed as Homo sapiens) [compound 3],+ (<20% = +),,
++ (≥20% = ++),98 (KIPPVSPSI; listed as Homo sapiens) [compound 98],++++ (>=70% = ++++),,
++ (≥20% = ++),95 (KLTDVGIATL; listed as Homo sapiens) [compound 95],++++ (>=70% = ++++),,
